Experiment [1] has as its system mice treated with Mtox. Briefly: Example 31: Mtox model of Parkinson's Disease. Format: in vivo, mouse. Particulars: Mtox 10 mg/kg, three doses. The method, then: Three doses of Mtox (10 mg/kg) will be given to mice (n=12) 2 hours apart. Peptide conjugates, aromatic-cationic peptides, or SPN10(s) with or without aromatic-cationic peptides will be administered 30 minutes before each Mtox injection, and at 1 and 12 hours after the last Mtox injection. Animals will be sacrificed one week later and striatal brain regions will be immunostained for tyrosine hydroxylase activity. Levels of dopamine, DOPAC and HVA levels will be quantified by high pressure liquid chromatography.

For experiment [2], the system named is rat model of radiocontrast dye-induced renal failure. Put plainly: Example 39: radiocontrast dye-induced renal failure. In kind it is in vivo. The method, then: Animal Model: A rat model of radiocontrast dye-induced renal failure as described by Agmon, et al., J. Clin. Invest. 94:1069-1075 (1994) will be used. As in humans, radiocontrast dyes are generally non-toxic when administered to animals with normal renal function. However, radiocontrast dyes can induce ARI in animals with impaired renal function. In this model, impaired renal function will be induced by the administration of indomethacin (10 mg/kg) and L-NAME (10 mg/kg). Animals will be assigned to one of the following groups:
2. Indomethcin and L-NAME administered 15 minutes apart, followed by iothalamate (6 mL/kg) (n=7)
3. peptide conjugates (3 mg/kg, i.p.) administered 15 minutes prior to indomethacin/L-NAME/iothalamate administration as described in Group 2; second dose of peptide conjugates (3 mg/kg) administered immediately after drug exposure (n=9).
4. aromatic-cationic peptides (an equivalent molar dose of aromatic-cationic peptide based on the concentration of the aromatic-cationic peptide administered in the peptide conjugate treatment group) administered 15 minutes prior to indomethacin/L-NAME/iothalamate administration as described in Group 2; second dose of aromatic-cationic peptides (an equivalent molar dose of aromatic-cationic peptide based on the concentration of the aromatic-cationic peptide administered in the peptide conjugate treatment group) administered immediately after drug exposure (n=9).
5. […]
Renal Function: Renal function will be assessed by determining GFR at baseline and 24 hours following dye administration. GFR will be determined by creatinine clearance which will be estimated over a 24 hour interval before and after dye administration. Creatinine clearance will be analyzed by measuring plasma and urinary creatinine levels (Bioassay Systems; DICT-500) and urine volume.
Renal Histology: Kidneys will be fixed in 10% neutral-buffered formalin and embedded in paraffin wax for sectioning. Three-micron sections will be stained with hematoxylin-eosin (H&E) and periodic acid-Schiff (PAS) and analyzed by light microscopy by a board certified pathologist. […]

The target of experiment [3] is cytochrome c (Homo sapiens, UniProt P99999). Put plainly: Kinetics of cytochrome c reduction (absorbance at 550 nm). Format: biochemical. An excerpt: It is hypothesized that the distribution of SPN10(s) or peptide conjugates among the protein complexes in the IMM allows it to serve as additional an relay station to facilitate ET. […] Addition of N-acetylcysteine (NAC) as a reducing agent is anticipated to result in time-dependent increase in absorbance at 550 nm.
Sequence of cytochrome c (P99999 whole entry, species assumed): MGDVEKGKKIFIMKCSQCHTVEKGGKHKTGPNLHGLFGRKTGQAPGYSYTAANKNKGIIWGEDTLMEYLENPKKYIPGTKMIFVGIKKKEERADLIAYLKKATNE

In experiment [4] the test system is subjects at risk for developing hyperalgesia. Put plainly: Prevention of neuropathy or hyperalgesia in at-risk humans. Format: in vivo, human. Particulars: s.c., once daily. An excerpt:
Subjects at risk for developing hyperalgesia will be recruited as they present in clinic for the treatment of conditions associated with the development of peripheral neuropathy or hyperalgesia. Independent studies will address neuropathy and hyperalgesia resulting from, caused by, or otherwise associated with genetic disorders, metabolic/endocrine complications, inflammatory diseases, vitamin deficiencies, malignant diseases, and toxicity, such as alcohol, organic metal, heavy metal, radiation, and drug toxicity. Subjects will be selected such that they are at risk for developing a single type of neuropathy or hyperalgesia, having no risk factors outside the scope of the study in which the subject is enrolled, and as yet not having symptoms associated with neuropathy or hyperalgesia. Subjects will be screened for their willingness to enroll in the study, and informed consent will be obtained. […]
After a focused interview about the medical history, baseline measurements of touch and sharpness detection thresholds, grooved pegboard tests, and thermal detection thresholds will be determined according to the methods described above, with statistical analysis as described above. […]
Subjects will be evaluated weekly during the trial for sharpness detection thresholds, grooved pegboard tests, and thermal detection thresholds. […]

Residues, ends and D or L forms follow the SMILES beside them.

`N=C(N)NCCC[C@H](NC(=O)[C@@H](N)Cc1c[nH]c2ccccc12)C(=O)N[C@@H](Cc1c[nH]c2ccccc12)C(=O)N[C@@H](CCCCN)C(N)=O` [SPN10, H-L-Trp-L-Arg-L-Trp-L-Lys-NH2] (H-WRWK-NH2): in experiment [1], the “loss of dopaminergic neurons” value is listed as “dose-dependently prevent the loss of dopaminergic neurons”; the “striatal dopamine, DOPAC, and HVA levels” value was “dose-dependently increase striatal dopamine, DOPAC, and HVA levels”. In addition, the “number of apoptotic cells in contrast dye-exposed kidneys” value in experiment [2] (TUNEL) is given as “reduce the number of apoptotic cells”. Moreover, the “loss of renal brush border and vacuolization (PAS)” value in experiment [2] (contrast dye-exposed kidneys) is “attenuated”. Also, the “decline in renal function (GFR) after contrast dye” value in experiment [2] (indomethacin, L-NAME, iothalamate, treatment before and after dye) is recorded as “reduce the decline in renal function”. The “reduction of cytochrome c by compound alone” value in experiment [3] (100 μM, without NAC) was “will not reduce cytochrome c”. In addition, the “rate of NAC-induced cytochrome c reduction” value in experiment [3] (with N-acetylcysteine (NAC)) is on record as “dose-dependently increase”. The “development of neuropathy or hyperalgesia” value in experiment [4] is recorded as “attenuated”.
